In patent publication US7696249B2, “Diphenyl urea derivatives” (ARPIDA AG, priority 2005, dated 2010):
Converted amounts (≈) assume the structure as drawn. Where two headings read alike, the source gives them in different places.

Experiments:
Assay type in all cases: cell-based
E. faecalis VanB E80-8 = experiment: MIC, broth dilution antimicrobial susceptibility testing (CLSI); settings: for MIC: Enterococcus faecalis, VANBE808, pathogens for skin infections, read-out: Minimum Inhibitory Concentration (MIC) E. faecalis VanB E80-8; for Minimum Inhibitory Concentration (MIC) E. faecalis VanB E80-8: pathogens for gastro-intestinal infections
Method: (§1) Antimicrobial susceptibility testing was performed in accordance with the Clinical and Laboratory Standards Institute (CLSI).
(§2) Clinical and Laboratory Standards Institute (CLSI; formerly NCCLS): Methods for Dilution Antimicrobial Susceptibility Tests for Bacteria That Grow Aerobically; Approved Standard—Seventh Edition (2006). Clinical and Laboratory Standards Institute document M7-A7.

S. aureus ATCC 25923 = experiment: as above; settings: Staphylococcus aureus, ATCC25923
Method: as §1, §2

S. aureus MRSA 101 = experiment: as above; settings: for MIC: Staphylococcus aureus, MRSA, pathogens for nasal colonization, read-out: Minimum Inhibitory Concentration (MIC) S. aureus MRSA 101; for Minimum Inhibitory Concentration (MIC) S. aureus MRSA 101: pathogens for ocular infections
Method: as §1, §2

S. aureus MRSA 39 = experiment: as above; settings: for MIC: Staphylococcus aureus, MRSA, pathogens for nasal colonization, read-out: Minimum Inhibitory Concentration (MIC) S. aureus MRSA 39
Method: as §1, §2

S. epidermidis MRSE 70 = experiment: as above; settings: for MIC: Staphylococcus epidermidis, MRSE, pathogens for nasal colonization, read-out: Minimum Inhibitory Concentration (MIC) S. epidermidis MRSE 70
Method: as §1, §2

S. pneumoniae 1/1 = experiment: MIC, CLSI methodology with Todd Hewitt Broth without blood; settings: Streptococcus pneumoniae, pathogens for ocular infections, read-out: Minimum Inhibitory Concentration (MIC) S. pneumoniae 1/1
Method: (§3) Antimicrobial susceptibility testing was performed in accordance with the Clinical and Laboratory Standards Institute (CLSI). Clinical and Laboratory Standards Institute (CLSI; formerly NCCLS): Methods for Dilution Antimicrobial Susceptibility Tests for Bacteria That Grow Aerobically; Approved Standard—Seventh Edition (2006). Clinical and Laboratory Standards Institute document M7-A7. Streptococci (S. pneumoniae, S. pyogenes, S. viridans) were tested following the CLSI methodology with the exception that Todd Hewitt Broth without blood was used. Anaerobic bacteria (P. acnes, B. distasonis) were tested following CLSI (formerly NCCLS) guidelines except for using microbroth dilutions in Wilkins Chalgren Broth. National Committee for Clinical Laboratory Standards (NCCLS). Methods for Anti-microbial Susceptibility Testing of Anaerobic Bacteria; Approved Standard—Sixth Edition (2004). NCCLS document M11-A6.

S. pyogenes GAS-1 = experiment: as above; settings: for MIC: Streptococcus pyogenes, GAS1, pathogens for ocular infections, read-out: Minimum Inhibitory Concentration (MIC) S. pyogenes GAS-1; for Minimum Inhibitory Concentration (MIC) S. pyogenes GAS-1: pathogens for skin infections
Method: as §3

S. viridans UHC 7 = experiment: as above; settings: Streptococcus viridans, UHC7; pathogens for dental infections; read-out: Minimum Inhibitory Concentration (MIC) S. viridans UHC 7
Method: as §3

B. distasonis 5770 = experiment: MIC, anaerobic bacteria, microbroth dilutions in Wilkins Chalgren Broth; settings: Parabacteroides distasonis, pathogens for gastro-intestinal infections, read-out: Minimum Inhibitory Concentration (MIC) B. distasonis 5770
Method: as §3, with “(CLSI).” for “(CLSI). Clinical and Laboratory Standards Institute (CLSI; formerly NCCLS): Methods for Dilution Antimicrobial Susceptibility Tests for Bacteria That Grow Aerobically; Approved Standard—Seventh Edition (2006). Clinical and Laboratory Standards Institute document M7-A7.”

P. acnes 6390 = experiment: as above; settings: Cutibacterium acnes, pathogens for skin infections, read-out: Minimum Inhibitory Concentration (MIC) P. acnes 6390
Method: as §3, with “(CLSI).” for “(CLSI). Clinical and Laboratory Standards Institute (CLSI; formerly NCCLS): Methods for Dilution Antimicrobial Susceptibility Tests for Bacteria That Grow Aerobically; Approved Standard—Seventh Edition (2006). Clinical and Laboratory Standards Institute document M7-A7.”

[1] = pathogens for nasal colonization, read-out: Minimum Inhibitory Concentration (MIC) S. aureus ATCC 25923
[2] = pathogens for ocular infections, read-out: Minimum Inhibitory Concentration (MIC) S. aureus 25923
[3] = pathogens for ocular infections

| MIC (E. faecalis VanB E80-8) [µg/mL] | Minimum Inhibitory Concentration (MIC) E. faecalis VanB E80-8 (E. faecalis VanB E80-8) [micrograms/ml] | MIC (S. aureus ATCC 25923; [1]) [µg/mL] | MIC (S. aureus ATCC 25923; [2]) [µg/mL] | MIC (S. aureus MRSA 101) [µg/mL] | Minimum Inhibitory Concentration (MIC) S. aureus MRSA 101 (S. aureus MRSA 101) [micrograms/ml] | MIC (S. aureus MRSA 39) [µg/mL] | Minimum Inhibitory Concentration (MIC) S. aureus MRSA 39 (S. aureus MRSA 39; [3]) [micrograms/ml] | Minimum Inhibitory Concentration (MIC) S. aureus MRSA 39 (S. aureus MRSA 39; pathogens for skin infections) [micrograms/ml] | MIC (S. epidermidis MRSE 70) [µg/mL] | Minimum Inhibitory Concentration (MIC) S. epidermidis MRSE 70 (S. epidermidis MRSE 70; [3]) [micrograms/ml] | Minimum Inhibitory Concentration (MIC) S. epidermidis MRSE 70 (S. epidermidis MRSE 70; pathogens for skin infections) [micrograms/ml] | MIC (S. pneumoniae 1/1) [µg/mL] | MIC (S. pyogenes GAS-1) [µg/mL] | Minimum Inhibitory Concentration (MIC) S. pyogenes GAS-1 (S. pyogenes GAS-1) [micrograms/ml] | MIC (S. viridans UHC 7) [µg/mL] | MIC (B. distasonis 5770) [µg/mL] | MIC (P. acnes 6390) [µg/mL] | SMILES |
| --- | --- | --- | --- | --- | --- | --- | --- | --- | --- | --- | --- | --- | --- | --- | --- | --- | --- | --- |
| 1 (≈ 2.5 µM) | 1 | 0.125 (≈ 0.312 µM) | 0.125 (≈ 0.312 µM) | 0.125 (≈ 0.312 µM) | 0.125 | 0.125 (≈ 0.312 µM) | 0.125 | 0.125 | 0.25 (≈ 0.624 µM) | 0.25 | 0.25 | 0.06 (≈ 0.15 µM) | 0.125 (≈ 0.312 µM) | 0.125 | 0.5 (≈ 1.25 µM) | 0.25 (≈ 0.624 µM) | ≤ 0.03 | O=C(Nc1cc(F)cc(C(F)(F)F)c1)Nc1ccc(Cl)c(C(F)(F)F)c1 [Example 1, 1-(3-Fluoro-5-trifluoromethyl-phenyl)-3-(4-chloro-3-trifluoromethyl-phenyl)-urea] |
| 2 (≈ 4.8 µM) | 2 | 0.25 (≈ 0.6 µM) | 0.25 (≈ 0.6 µM) | 0.25 (≈ 0.6 µM) | 0.25 | 0.25 (≈ 0.6 µM) | 0.25 | 0.25 | 0.25 (≈ 0.6 µM) | 0.25 | 0.25 | 0.5 (≈ 1.2 µM) | 0.5 (≈ 1.2 µM) | 0.5 | 2 (≈ 4.8 µM) | 0.5 (≈ 1.2 µM) | ≤ 0.03 | Fc1cc(NC(=S)Nc2ccc(Cl)c(C(F)(F)F)c2)cc(C(F)(F)F)c1 [Example 3, 1-(3-Fluoro-5-trifluoromethyl-phenyl)-3-(4-chloro-3-trifluoromethyl-phenyl)-thiourea] |
| 1 (≈ 2.25 µM) | 1 | 0.125 (≈ 0.281 µM) | 0.125 (≈ 0.281 µM) | 0.25 (≈ 0.562 µM) | 0.25 | 0.125 (≈ 0.281 µM) | 0.125 | 0.125 | 0.5 (≈ 1.12 µM) | 0.5 | 0.5 | ≤ 0.03 | 0.06 (≈ 0.135 µM) | 0.06 | 0.5 (≈ 1.12 µM) | 0.25 (≈ 0.562 µM) | ≤ 0.03 | O=C(Nc1cc(F)cc(C(F)(F)F)c1)Nc1ccc(Br)c(C(F)(F)F)c1 [Example 2, 1-(3-Fluoro-5-trifluoromethyl-phenyl)-3-(4-bromo-3-trifluoromethyl-phenyl)-urea] |
